One molecule from US6767569B1, “Surface decontamination of cooked sausage and processed meat and poultry products” (priority 1999, dated 2004) can be followed below.

Type in all cases: cell-based
Test [1] concerns Salmonella spp. The conditions noted are these: pork skin; 5 seconds spray; 2% lactic acid, 2% acetic acid, 0.1% peracetic acid; after 48 hours. On the procedure: (§1) Samples of pork skin were inoculated separately with either 5 strains of E. coli or 5 strains of Salmonella spp. (mixtures X and Y, see Example 4). Five different treatments were evaluated for effectiveness in reducing bacteria on pork skin. […] EMB agar was used for E. coli and XLD for Salmonella, and a nutrient agar was also used for E. coli and Salmonella for total count.
(§2) The five strains of generic E. coli and five strains of Salmonella spp. were cultured and transferred individually into 100 mL of tryptic soy broth (TSB, DIFCO, Detroit, Mich.) with 1% dextrose (Sigma, St. Louis, Mo.) in duplicate. Dextrose was added to induce acid tolerance in the microbial cell. The cultures were incubated at 35° C. for 24 hrs. to obtain ca. 10^9 colony forming units (CFU)/mL. The cells were harvested by the centrifuging each culture at 10,000 Xg force for 10 min. at 4° C., (Beckman J2-HS centrifuge, Beckman Instruments, Inc., Palo Alto, Calif.). After centrifugation, the supernatant was poured off, and cells remained in pellet form. Each pellet was individually re-suspended with 50 mL of 0.1% peptonewater (DIFCO, Detroit, Mich.). All five strains of E. coli or Salmonella spp. inoculum were transferred to separate HDPE plastic spray bottles (Sprayco™, Detroit, Mich.) to be used in the mist inoculation of pork skin samples.
(§3) For E. coli, PCA and EMB media were used, and for Salmonella, PCA and XLD media were used. Bacto Plate Count Agar (PCA) was used in this study as a standard methods medium for the enumeration of bacteria before and after treatments. Spiral (sl), or spread (sd) plate technique were used for viable cell counts. Duplicate plates were performed for each treatment.
(§4) Fresh pork skins taken from the loin region were cut to rectangles of 19.35 cm^2. A hole was bored into the top of each sample so that each sample could be suspended from an individual hook in the spray cabinet. Samples were laid out onto trays wrapped in butcher paper. Each tray was individually spray inoculated with E. coli or Salmonella spp. in a Plexiglas spray chamber to ca. 8.4 mL of inoculum. After the inoculation, each tray was placed under a laminar flow hood for 1 hr. to allow the surface to dry and for the attachment of the bacteria to the pork skin.
(§5) The peracetic acid (PAA) used in this study was a 35.0% PAA buffered, liquid solution prepared from a STERIS 20™ two compartment cup (a dry powder containing anticorrosive additives, buffers, sequestrants, and surfactants). The peracetic acid determined before each use of the treatment using a calibration curve.
(§6) Five inoculated samples were individually placed on stainless steel hooks in. a spray cabinet at ambient temperature.
(§7) The samples were exposed to a continuous spray of the selected treatment for 5 seconds at a spray pressure of 16-18 psi.
(§8) The treated samples were placed into individual stomacher bags containing 30 mL of 0.1% peptone water (DIFCO, Detroit, Mich.) and stomached for 2 min. Serial dilutions of 0, 10^−2, and 10^−4 were spiral plated (WASP spiral plater, Bioscience International, Rockville, Md.) on PCA (DIFCO, Detroit, Mich.) and EMB (DIFCO, Detroit, Mich.) for E. coli and on plate count agar (PCA, DIFCO, Detroit, Mich.) and xylose lysine decarboxylase agar (XLD, DIFCO, Detroit, Mich.) for Salmonella spp. Samples were also spread plated on PCA and EMB agar for E. coli or PCA and XLD agar for Salmonella spp, using […] for a total of 1 mL on 4 plates. This was to ensure a countable plate. Plates were inverted and incubated at 35° C. for 24 hrs. (48 hrs. for Salmonella spp.).

In test [2] the test system is E. coli. As to conditions: pork skin; 5 seconds spray; 2% lactic acid, 2% acetic acid, 0.1% peracetic acid; after 24 hours. On the procedure:
as §1, §2, §3, §4, §5, §6, §7, §8

Test [3] deals with Salmonella spp. As to conditions: 35 °C, 24 hrs. As for the experimental part: (§9) Each strain was subcultured on tryptic soy agar (TSA, DIFCO, Detroit, Mich.) slants and stored at 4° C. Strains were individually transferred into 100 mL of sterile 2× BHI (DIFCO, Detroit, Mich.) and incubated at 35° C. for 24 hr. to reach ca. 10^9 colony forming units/mL (CFU/mL). Then, 25 mL of each strain of E. coli was transferred into a sterile bottle (mixture X), and 25 mL of each strain of each strain of Salmonella spp. was transferred into a sterile bottle (mixture Y). Mixtures X and Y were maintained separately throughout the test.
(§10) Serial dilutions were made using Butterfields' Phosphate Buffer (BPB, Sigma, St. Louis, Mo.) in 1 mL aliquots prior to inoculation. BPB was prepared as a stock solution by adding 34 g Of KH2PO4 to 500 mL of distilled water. The pH was adjusted to 7.2, and the solution was brought to a volume of 1 L. The BPB stock was autoclaved for 20 min. at 121° C. and 15 lbs. of pressure. […] For glacial acetic acid (U.S.P.-F.C.C., J. T. Baker, Phillipsburg, N.J.), starting concentrations and serial dilutions were 50%, 25%, 12.5%, 6.25%, 3.12%, 1.56%, 0.78%, 0.39%, and a control (no treatment, buffer and culture). […] For peracetic acid 35.0% (STERIS 20™, STERIS Corporation, Mentor, Ohio), starting concentrations and serial dilutions were 17.5%, 8.75%, 4.38%, 2.19%, 1.09%, 0.55%, 0.30%, 0.14%, 0.07%, 0.03%, and a control. For liquid smoke (Hickory Specialties, Brentwood, Tenn.) starting concentrations and serial dilutions were 50%, 25%, 12.5%, 6.25%, 3.12%, 1.56%, 0.78%, 0.39%, and a control. Dilutions were prepared with deionized water.
(§11) The test tubes were incubated at 35° C. for 24 hrs. and turbidity was evaluated using McFarland equivalence standards, to study the bacteriostatic properties of the diluted solutions. In addition, each dilution was plated to evaluate the bactericidal properties of, the diluted solutions. Using a 1 μL sterile loop, each concentration and control for either microorganism mixture was streaked on plate count agar (PCA, DIFCO, Detroit, Mich.). A selective agar was also used for each mixture, eosine methylene blue agar (EMB, DIFCO, Detroit, Mich.) for E. coli and xylose lysine decarboxylase agar (XLD, DIFCO, Detroit,Mich.) for Salmonella spp. All plates were incubated for 24 hrs. at 35° C. and were inspected for growth or no growth.

Test [4] relates to E. coli. As for the experimental part:
as §9, §10, §11

For `CC(=O)O` [Acetic Acid, acetic acid, reference compound], in the test on Salmonella spp. [1], the “Total Count (Salmonella) on PCA” value came out at 5.37 Log CFU/cm^2 and the “Total Count (Salmonella) on XLD” value stood at 4.27 Log CFU/cm^2. In the test on E. coli [2], the “Total Count (E. coli) on EMB” value is 4.55 Log CFU/cm^2 and the “Total Count (E. coli) on PCA” value is reported as 4.68 Log CFU/cm^2. For the same molecule, the “MIC (%)” value with Salmonella spp. [3] turned out to be 0.78%. Further, the “MIC (%)” value in the test with E. coli [4] worked out at 3.12%.
